Here are results for one compound from US20210052512A1, “CANNABIDIOL PREPARATIONS AND ITS USES” (GW Research Limited, priority 2018, published 2021).

Test [1] deals with MES-induced tonic seizures. As to the kind of experiment: Maximal electroshock seizure (MES) test. In kind it is in vivo, mice. To be noted: for HED - mg (human equivalent dose): converted to HED of 10 mg/kg, assuming 60 kg human. The protocol:
This study was performed using male C57Bl6 mice, weighing between 23.6-31.2 g, which were purchased from a licensed breeder (Charles River, UK). Naïve mice were acclimatized to the procedure room in their home cages, with food and water available ad libitum. Animals were housed in groups of 2-3, in standard caging on a 12 hr/12 hr light-dark cycle. All animals were tail marked and weighed at the beginning of the study. Animals were randomly assigned to vehicle or treatment groups.
The following drugs were used in this study: synthetic CBD (SYN) and botanically derived purified CBD (BOT). The control vehicle used was (1:1:18), which was 5% Ethanol, 5% Kolliphor, 90% saline, and has been used extensively throughout similar seizure tests. All drugs were dissolved in the control vehicle for comparison. Animals were dosed (10 ml/kg) i.p. at 60 minutes prior to the administration of the maximal electroshock seizure (MES) test. In addition to the vehicle group, the dosage groups used for each treatment and included doses of 10, 50, 100 (Experiment 1 only), 150 and 200 mg/kg for CBD (SYN) and CBD (BOT). The number of animals in each of these groups were 10 (n=10).
Two separate experiments were undertaken using two different batches of the botanically derived purified CBD. In the first experiment the concentration of THC in botanically derived purified CBD was 0.02% THC (w/w) whereas in the second experiment the concentration of THC in the botanically derived purified CBD was approximately 0.1% THC (w/w).
The protective activity of CBD (SYN) and CBD (BOT) was evaluated and expressed as effective doses (ED50 in mg/kg), protecting 50% of mice against MES-induced tonic seizures. Electroconvulsions were produced by a fixed current intensity of 30 mA and corneally delivered electroshock (0.2 second duration). Mice were individually assessed for seizures following this pre-determined high level (30 mA) corneally delivered electroshock of sufficient intensity to reliably produce tonic hind limb extension seizures in 100% of control animals. […]
(The maximal electroshock test induces tonic seizures with an electrical stimulus.)

Test [2] concerns human iPSC derived cerebral cortical neural stem/progenitor cells (hNSCs). The experiment in a line: Neurogenesis and neuronal differentiation of hNSCs (MAP2+ cell count, immunohistochemistry). In kind it is cell-based. To be noted: for Mean % MAP2+ cells (3 days): 3 days incubation; for Mean % MAP2+ cells (3 days) / Mean % MAP2+ cells (5 days): hNSCs; for Mean % MAP2+ cells (5 days): 5 days incubation. The protocol: Human iPSC-derived cerebral cortical neural stem cells (hNSCs) (Axol Bioscience Inc., UK) were cultured as monolayers at a density of 1.0×10^4 cells/cm^2 on 100 mm diameter Petri dishes. The cells were collected from their original cryovial, suspended in Plating-XF Medium and plated on Petri dishes coated with SureBondXF 1× working solution prepared in D-PBS (without calcium or magnesium). hNSCs were incubated at 37° C. and 5% CO2 and 24 hours after of incubation, the plating medium was replaced with fresh Neural Expansion-XF Medium supplemented with the growth factors Recombinant Human EGF and Recombinant Human FGF2 (final concentration of 20 ng/mL (1×) of FGF2 and EGF). The cultures were re-fed with fresh Neural Expansion-XF supplemented with EGF and FGF2 every two days. When the hNSCs reached approximately 80% confluence, they were prepared for treatment. Pre-warmed Axol Unlock-XF was used to detach the cells and after 3 minutes of incubation the cells were re-suspended in Neural Expansion-XF Medium supplemented with EGF and FGF2. The cells (1×10^4 cells/cm^2) were then plated in Petri dishes coated with SureBondXF 1× and after 2 hours the medium was replaced with fresh Neural Expansion-XF supplemented with EGF and FGF2.
hNSCs cultured as described above were plated at a density of 1×10^4 cells/cm^2 on SureBondXF-coated coverslips in the presence of botanically derived purified CBD; synthetic CBD; or vehicle diluted in the Neural Differentiation-XF Medium (DM, without growth factors) for 3-5 days at 37° C. in a 5% CO2/95% air atmosphere.
Cannabinoids were dissolved in 95% (v/v) ethanol and added to the medium to obtain final concentrations of 0.1 or 1 μM CBD.
Ethanol was added to the vehicle-treated cells for the whole differentiation period of 3-5 days wherein the final concentration was never higher than 0.05% (v/v).
In order to perform immunohistochemistry, the cells were fixed with 4% (w/v) paraformaldehyde. Nonspecific binding was blocked with 10% (v/v) fetal bovine serum and 0.1% (v/v) Triton X-100 and incubated with primary antibodies: mouse anti-Map2ab (Sigma-Aldrich; 1:200) and rabbit anti-GFAP (DAKO; 1:200) or rabbit anti-Gap43 (Synaptic System; 1:300 at room temperature for 4 hours. Secondary antibodies—anti-mouse Alexa594 (Life Technologies; 1:100) and anti-rabbit Alexa488 (Life Technologies; 1:100)—were used for immunofluorescence. Cells were then counterstained with DAPI, washed with PBS and cover slipped with Aquatex mounting medium (Merck, Darmstadt, Germany). The immunofluorescence was studied with an epifluorescence microscope (Leica AF6000) equipped with the appropriate filter and then acquired using a digital camera (Leica, DFC 340) connected to the microscope and image analysis software (Leica, LAS AF). No immunoreactivity was found in the samples processed for the control of specificity of each primary antibody used in the study, which was performed by omitting the primary antibody before adding the appropriate secondary antibody.
Digital Leica LAS AF 2.2.0 software (Live Data Mode system) was used for counting Map2ab+DAPI+ cells. […] For each experimental condition, cells from 3 different tubes were each analyzed in triplicate and 3 frames were collected at 20× magnification. Data were analyzed with GraphPad Prism 6 software, version 6.05 (GraphPad, Inc.) and are expressed as mean±SEM. Statistical differences among groups were determined by two-way ANOVA followed by post hoc Bonferroni tests for comparison among means. […]

For test [3], the system named is sub-chronic PCP-induced deficit in novel object recognition. As to the kind of experiment: Novel object recognition (NOR) test after sub-chronic PCP. In kind it is in vivo, rats. On the procedure:
Female hooded-Lister rats were used for this experiment. Rats were housed in groups of 5 under standard laboratory conditions under a 12 hr light: dark cycle, with lights on at 0700 hr. Testing was carried out in the light phase. Rats were randomly assigned to two treatment groups and treated with vehicle, n=20 (distilled water, i.p.) or Phencyclidine hydrochloride (PCP), n=100 (2 mg/kg, i.p. twice daily for 7-days). PCP was dissolved in distilled water. This was followed by a 7-day wash out period before the rats were tested following acute treatment with CBD, risperidone or vehicle.
Risperidone (0.1 mg/kg) was dissolved in a minimum volume of acetic acid, made up to volume with distilled water and pH adjusted to 6 with 0.1M NaOH and administered via the i.p. route in a volume of 1 ml/kg, 120 minutes prior to testing.
Botanically derived purified CBD was tested at 2, 10, 20 or 100 mg/kg and was dissolved in 2:1:17 (Ethanol:Cremofor:Saline 0.9%) and administered via the i.p. route in a volume of 5 ml/kg, 60 minutes prior to testing. The THC concentration in the botanically derived purified CBD was 0.03% (w/w) THC.
Synthetic CBD at 1, 2, 5, 10 or 20 mg/kg was dissolved in 2:1:17 (Ethanol:Cremofor:Saline 0.9%) and administered via the i.p. route in a volume of 5 ml/kg, 120 minutes prior to testing.
Rats were allowed to habituate to the empty test box and the behavioral test room environment for one hour on day 1. Prior to behavioral testing on day 2, rats were given a further 3 minute habituation.
Following the 3 minute habituation period, the rats are given two 3 minute trials (T1 and T2) which were separated by a 1 minute inter-trial interval in the home cage during which the objects were changed. Behavior in all trials was recorded on video for subsequent blind scoring.
In the acquisition trial (T1), the animals were allowed to explore two identical objects (A1 and A2) for 3 minutes. In the retention trial (T2), the animals were allowed to explore a familiar object (A) from T1 and a novel object (B) for 3 minutes. […]
The exploration time(s) of each object (A, B, familiar and novel) in each trial were recorded using two stopwatches and the following factors were calculated: total exploration time of both objects in the acquisition trial, total exploration time of both objects in the retention trial. Habituation of exploratory activity included the exploration time, as measured by the number of lines crossed, for both trials.
All data were assessed for normality using D'Agostino and Pearson normality test. Data non-normally distributed were analyzed using Kruskal-Wallis followed by planned comparisons with Dunn's correction. Normally distributed data were analyzed using one-way ANOVA followed by planned comparisons with Sidak's correction. […]

Test [4] relates to human iPSC derived cerebral cortical neural stem/progenitor cells (hNSCs). As to the kind of experiment: Axonal outgrowth and neuronal differentiation of hNSCs (GAP43 immunocytochemistry). Format: cell-based. As to conditions: 1 μM. On the procedure: Human iPSC-derived cerebral cortical neural stem cells (hNSCs) (Axol Bioscience Inc., UK) were cultured as monolayers at a density of 1.0×10^4 cells/cm^2 on 100 mm diameter Petri dishes. The cells were collected from their original cryovial, suspended in Plating-XF Medium and plated on Petri dishes coated with SureBondXF 1× working solution prepared in D-PBS (without calcium or magnesium). hNSCs were incubated at 37° C. and 5% CO2 and 24 hours after of incubation, the plating medium was replaced with fresh Neural Expansion-XF Medium supplemented with the growth factors Recombinant Human EGF and Recombinant Human FGF2 (final concentration of 20 ng/mL (1×) of FGF2 and EGF). The cultures were re-fed with fresh Neural Expansion-XF supplemented with EGF and FGF2 every two days. When the hNSCs reached approximately 80% confluence, they were prepared for treatment. Pre-warmed Axol Unlock-XF was used to detach the cells and after 3 minutes of incubation the cells were re-suspended in Neural Expansion-XF Medium supplemented with EGF and FGF2. The cells (1×10^4 cells/cm^2) were then plated in Petri dishes coated with SureBondXF 1× and after 2 hours the medium was replaced with fresh Neural Expansion-XF supplemented with EGF and FGF2. […]

Structures are written as SMILES.

As for `C=C(C)[C@@H]1CCC(C)=C[C@H]1c1c(O)cc(CCCCC)cc1O` [Synthetic CBD, 2-[(1R,6R)-3-Methyl-6-(1-methylethenyl)-2-cyclohexen-1-yl]-5-pentyl-1,3-benzenediol], the “HED - mg (human equivalent dose)” value in test [1] (Experiment 1) and in test [1] (Experiment 2) was 600.0 mg in each case. Moreover, the “ED50 protecting 50% of mice against MES-induced tonic seizures” value in test [1] (Experiment 1, i.p. 60 minutes prior to MES, sigmoidal curve - constant top, listed as CBD (SYN)) was determined as 77.60 mg/kg. Moreover, the “Mean % MAP2+ cells (3 days)” value in test [2] (0.1 μM) came out at 4.87 ± 0.1%; in test [2] (1 μM) it was 6.11 ± 0.3%. Moreover, the “Mean % MAP2+ cells (5 days)” value is on record as 6.02 ± 0.3% in test [2] (0.1 μM) and 7.09 ± 0.1% in test [2] (1 μM). The “Effect on neurogenesis and neuronal differentiation of hNSCs (in words)” value in test [2] (0.1 and 1 μM, 3 or 5 days, relative to vehicle-treated cells) was “did not have a significant effect”. Further, the “human daily amount equivalent to the rat MED” value in test [3] (70 kg human) is given as 112 mg/day. Further, the “amount of CBD required in a human relative to botanically derived purified CBD” value in test [3] (from difference in MED) was “five times the amount of CBD”. The “human equivalent dose of the rat MED” value in test [3] (rat dose multiplied by 0.16 (FDA dose conversion guidance)) is given as 1.6 mg/kg/day. For the same compound, the “minimal effective dose (MED) attenuating sub-chronic PCP-induced deficit in novel object recognition” value in test [3] (rats, i.p., 120 min ppt) was determined as 10 mg/kg. Further, the “Mean % GAP43+ cells (3 days)” value in test [4] (3 days incubation) stood at 8.40 ± 2.0%. Besides, in test [4] (5 days incubation), the “Mean % GAP43+ cells (5 days)” value was determined as 9.15 ± 1.6%.
